Laboratory results from the supplement of paper PMC5412046.

Tests used:
SB.msgc-1 = assay: AC50 for growth inhibition (viability) (log10 M); higher = less potent; conditions: SB.msgc-1 (sporadic gastric cancer)
In short: (§1)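 In 1536-well plates, each well held 500 patient-derived gastric cancer cells (hereditary or sporadic) in 5 μL medium. Compound in DMSO, 23 nL per well, was pinned in 11 threefold dilutions starting at a final 46 μM. Following 48 h of exposure, cells had CellTiter-Glo for 30 min at room temperature before ViewLux luminescence reading. Only high-quality curve classes from four-parameter fits of DMSO-normalised viability gave the log half-maximal activity concentration.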

SB.mhdgc-1 = assay: as above; conditions: SB.mhdgc-1 (hereditary c.1380delA CDH1 gastric cancer)
In short: as §1

Compound | AC50 for growth inhibition (log10 M) (SB.msgc-1) | AC50 for growth inhibition (log10 M) (SB.mhdgc-1)
C[C@@H]1C[C@H]2[C@@H]3\C=C(C)/C4=C/C5=C(C[C@]4(C)[C@H]3[C@@H](O)C[C@]2(C)[C@@]1(O)C(=O)CO)C=N[N]5C6=CC=CC=C6 [Deacetyl cortivazol] | -5.08 | -5.63
NC(CSC(c1ccccc1)(c1ccccc1)c1ccccc1)C(=O)O (stereo in doubt) [S-Trityl-L-cysteine] | -5.03 | -5.58
C[S+](=O)([O-])N1CCc2c(-c3cnc(N)nc3)nc(N3CCOCC3)nc21 | -6.43 | -5.68
CSC1=CC(=CC=C1)NC2=NC3=C(C=N2)/C=C(C(=O)N3C)/C4=C(Cl)C=CC=C4Cl | -5.93 | -5.78
COC(=O)Nc1nc2cc(C(=O)c3ccc(F)cc3)ccc2[nH]1 [Flubendazole] | -6.23 | -5.23
NC/1=N/C(=O)N(/C=N1)[C@@H]2O[C@H](CO)[C@@H](O)[C@H]2O [5-Azacitidine] | -5.53 | -4.88
CCN1CCN(CC1)CC(=O)NC2=CC=C(C3=C2C4=C(S3)C=CC=C4)C5=C6O\C(=C/C(=O)C6=CC=C5)N7CCOCC7 | -5.68 | -5.73
Cc1coc2c1C(=O)C(=O)c1c-2ccc2c1CCCC2(C)C [Tanshinone IIA] | -4.68 | -5.58
O=C(Nc1ncc(-c2cc(C(F)F)nn2-c2c(Cl)cccc2Cl)s1)C1CC1 [BMS-3] | -6.18 | -6.13
Cc1cn[nH]c1 [Fomepizole] | -7.18 | -6.68
C=C1/C(=C\C=C2/CCC[C@]3(C)[C@@H]([C@H](C)CCCC(C)(C)O)CC[C@@H]23)C[C@@H](O)C[C@@H]1O [Calcitriol] | -5.63 | -6.53
O=C(NC1CCNCC1)c1n[nH]cc1NC(=O)c1c(Cl)cccc1Cl [AT-7519] | -6.68 | -7.18
CC(C)C[C@H](NC(=O)[C@@H](NC(=O)c1cccc(-c2ccccc2)n1)[C@@H](C)O)B(O)O [Delanzomib] | -7.43 | -7.38
Cc1cccc2c1CC[C@H](CN1CCC(c3c(Cl)cccc3Cl)CC1)C[C@@H]2O | -4.78 | -4.73
CC1=C(C)C2=C(S1)[N]3C(=NN=C3[C@H](CC(=O)OC(C)(C)C)/N=C2/C4=CC=C(Cl)C=C4)C [JQ1] | -5.38 | -5.28
Nc1ncnc2c1nc(Cl)n2[C@@H]1O[C@H](CO)[C@@H](O)[C@H]1O [8-Cl-Ado] | -4.68 | -4.78
C[C@@H]1O[C@@H](O[C@H]2C[C@@H](O)[C@]3(CO)[C@H]4[C@H](O)C[C@]5(C)[C@@H](C6=CC(=O)OC6)CC[C@]5(O)[C@@H]4CC[C@]3(O)C2)[C@H](O)[C@H](O)[C@H]1O [G-Strophanthin] | -7.38 | -6.98
Cc1cccc(-c2[nH]c(C(C)(C)C)nc2-c2ccc3nccnc3c2)n1 | -5.73 | -4.83
C[C@H]1CN(C[C@@H](C)O1)CC(=O)NC2=CC=C3SC4=C(CC3=C2)C=CC=C4\C5=C\C(=O)\C=C(/O5)N6CCOCC6 | -5.28 | -5.23
Cc1cc(Nc2ncc3c(n2)N(C)C(=O)N(c2cc(NC(=O)c4cccc(C(F)(F)F)c4)ccc2C)C3)n(C)n1 [Pluripotin] | -6.08 | -5.23
CCOc1cc(N2CCC(O)CC2)ccc1Nc1ncc2c(n1)N(C)c1ccccc1C(=O)N2C [XMD8-92] | -5.18 | -5.98
CC#C[C@]1(O)CC[C@H]2[C@@H]/3CCC/4=C/C(=O)CCC4=C3[C@H](C[C@]12C)C5=CC=C(C=C5)N(C)C [Mifepristone] | -6.63 | -7.23
COc1cc2ncnc(Nc3ccc(F)c(Cl)c3)c2cc1OCCCN1CCOCC1 [Gefitinib] | -6.67 | -5.57
ClC1=CC\2=C(NC(=O)\C(=C2N[C@@H]3CN4CCC3CC4)C5=NC6=C([NH]5)C=CC=C6)C=C1 [CHIR-124] | -6.53 | -6.08
N#CCNC(=O)c1ccc(-c2ccnc(Nc3ccc(N4CCOCC4)cc3)n2)cc1 [CYT387] | -4.73 | -4.78

Compound | AC50 for growth inhibition (log10 M) (SB.msgc-1) | AC50 for growth inhibition (log10 M) (SB.mhdgc-1)
C=C1/C(=C/C=C2\CCCC3(C)[C@@H]([C@H](C)/C=C/C=C/C(O)(CC)CC)CC[C@@H]23)C[C@@H](O)C[C@@H]1O (stereo not given in full) [Seocalcitol] | -4.78 | -4.83
Cc1n[nH]c2ccc(-c3cncc(OC[C@@H](N)Cc4c[nH]c5ccccc45)c3)cc12 | -6.08 | -6.03
OC[C@H]1O[C@H]([C@@H](F)[C@@H]1O)N2\C=C/C(=O)NC2=O | -5.13 | -5.08
S=P(N1CC1)(N1CC1)N1CC1 [ThioTEPA] | -5.23 | -5.48
CC(C)c1cnn2c(NCc3ccccc3)cc(N[C@@H](CO)[C@H](O)CO)nc12 [BS-194] | -6.58 | -6.73
CC(C)c1ccccc1Cc1cc(C(=O)Nc2ccc([S+](=O)([O-])c3ccccc3C(C)(C)C)cc2)c(O)c(O)c1O [TW-37] | -5.13 | -4.83
CCn1c(-c2nonc2N)nc2cnc(Oc3cccc(NC(=O)c4ccc(OCCN5CCOCC5)cc4)c3)cc21 | -5.18 | -4.98
COc1cc(C(=O)N2CCC(N3CCN(C)CC3)CC2)ccc1Nc1ncc2c(n1)N(C)c1ccccc1C(=O)N2C [LRRK2-IN-1] | -4.83 | -4.78
C[C@H](NC(=O)/C(C#N)=C/c1cccc(Br)n1)c1ccccc1 [WP-1066] | -5.48 | -5.43
COc1ccc([C@@H]2CNC(=O)C2)cc1OC1CCCC1 [S-(+)-Rolipram] | -5.58 | -5.58
CN[C@@H](C)C(=O)N[C@H]1CCCC[C@H]2CC[C@@H](C(=O)N[C@@H](c3ccccc3)c3cn(CCCCc4ccc(CCCCn5cc([C@@H](NC(=O)[C@@H]6CC[C@@H]7CCCC[C@H](NC(=O)[C@H](C)NC)C(=O)N76)c6ccccc6)nn5)cc4)nn3)N2C1=O [SM-164] | -4.68 | -5.88
C[C@@H](NC1=CC=CC=C1C(O)=O)C/2=C/C(=C\N3C(=O)/C=C(\N=C23)N4CCOCC4)C [AZD-6482] | -4.87 | -4.82
Clc1cc(Cl)cc(CNc2ncncc2-c2ccc3c(c2)OCO3)c1 | -4.78 | -5.28
CC(C)c1cc(C(=O)N2Cc3ccc(CN4CCN(C)CC4)cc3C2)c(O)cc1O | -6.78 | -6.53
Cn1c(=O)n(-c2ccc(C(C)(C)C#N)cc2)c2c3cc(-c4cnc5ccccc5c4)ccc3ncc21 [BEZ235] | -5.33 | -6.88
Clc1ccc(C(c2ccccc2Cl)C(Cl)Cl)cc1 (stereo not given) [Mitotane] | -4.73 | -4.88
C[C@H]1[C@@H](C(=O)C[C@H]2O[C@@H]3O[C@]4(C)CC[C@H]5[C@H](C)CC[C@@H]([C@H]2C)[C@@]35OO4)O[C@@H]2O[C@]3(C)CC[C@H]4[C@H](C)CC[C@@H]1[C@@]24OO3 [BTM-2C-dimer ketone] | -6.38 | -6.38
C=CCNC1=C2C[C@@H](C)C[C@H](OC)[C@H](O)[C@@H](C)/C=C(\C)[C@H](OC(N)=O)[C@@H](OC)/C=C\C=C(/C)C(=O)NC(=CC1=O)C2=O [Tanespimycin] | -7.53 | -7.28
CCOC(=O)N1CCN(/[N+]([O-])=N/Oc2cc(O/N=[N+](\[O-])N3CCN(C(=O)OCC)CC3)c([N+](=O)[O-])cc2[N+](=O)[O-])CC1 [Double JS-K] | -4.63 | -5.03
FC1=C(C=C(C\C2=N\NC(=O)C3=C2C=CC=C3)C=C1)C(=O)N4CCN(CC4)C(=O)C5CC5 [Olaparib] | -4.78 | -5.48
CC(C)N(CCCNC(=O)Nc1ccc(C(C)(C)C)cc1)C[C@H]1O[C@@H](n2cc(Br)c3c(N)ncnc32)[C@H](O)[C@@H]1O [SGC0946] | -4.53 | -4.68
C=CCc1cccc(/C=N/NC(=O)CN2CCN(Cc3ccccc3)CC2)c1O [PAC-1] | -5.23 | -5.13
COC(=O)Nc1nc2cc(Sc3ccccc3)ccc2[nH]1 [Fenbendazole] | -5.53 | -6.63
COc1c(C)cnc(Cn2cnc3c(Cl)nc(N)nc32)c1C [CNF-2024] | -7.18 | -6.33
CCC(=O)N1CCN(CC1)C2=C(C=C(C=C2)N3C(=O)\C=C/C4=C3C5=CC(=CC=C5N=C4)C6=CN=C7C=CC=CC7=C6)C(F)(F)F [Torin-1] | -5.13 | -6.63
